Assay results published in patent publication US20090018111A1, “Novel Antimicrobial Medicament” (priority 2004, published 2009).
Like-named read-outs stand apart in the source and are kept apart here.

How the values were obtained:
E. cloacae GN7471 = assay: Sensitivity test (agar dilution); assay type: cell-based, Enterobacter cloacae; details: Enterobacter cloacae, E. cloacae GN7471
Experimental: (§1) The antibacterial activities were tested against various 18 bacteria (27 standard strains) which are representative bacteria caused clinically infectious disease (Staphylococcus aureus 3 strains, Staphylococcus epidermidis 1 strain, Micrococcus luteus 1 strain, Streptococcus pyogenes 1 strain, Enterococcus faecalis 1 strain, Enterococcus faecium 1 strain, Bacillus subtilis 1 strain, Escherichia coli 3 strains, Klebsiella pneumoniae 1 strain, Proteus mirabilis 1 strain, Proteus vulgaris 2 strains, Pseudomonas aeruginosa 3 strains, Serratia marcescens 2 strains, Enterobacter aerogenes 1 strain, Stenotrophomonas maltophilia 1 strain, Enterobacter cloacae 1 strain, Citrobacter freundii 1 strain, Moraxella catarrhalis 2 strains).
(§2) According to the standard method of Japan Chemotherapeutic Society (Chemotherapy, vol. […], p 76-79 (1981)) the test was carried out using the agar dilution method. After dissolving test samples in distilled water, agar medium containing the test samples was prepared in such a manner that the final concentration became twice serial dilution by pouring serially diluted combination drug solution or a single drug solution into agar medium. As agar medium was used Mueller Hinton Agar medium (MHA). Then, each strain was cultivated over night at 37° C. in an incubator and suspended in buffered saline solution with gelatin (BSG) in the concentration of about 10^6 CFU/ml. The suspension (about 5 μl) containing test strains was inoculated to the medium containing the test samples by Micro Planter.
(§3) When the sample is subjected to sensitivity test, this mixed solution was diluted by twice serial dilution method.
Furthermore, when the drug is solely used, each test sample was used as it is, and diluted by twice serial dilution method from the maximum concentration to the minimum concentration.
(§4) FIC index based on MIC value was calculated. […] Namely, when FIC index calculated by the following formula is equal or less than 1, the enhanced effect of the combination drug in said ratio is considered as positive. When FIC index is over 1, the enhanced effect of the combination drug in said ratio is considered as negative.
(§5) Formula of FIC index: FIC index=(MIC of Drug A in combination/MIC of Drug A alone)+(MIC of Drug B in combination/MIC of Drug B alone) N.C. in tables means being not calculated.

[1] = system: 18 bacteria (27 standard strains); assay: Sensitivity test, combination effect over the standard strains; assay type: cell-based; details: in combination with compound 1, standard strains
Experimental: as §1, §2, §3, §4, §5

[2] = GN7471, drug alone, read-out: MIC alone

Compound	MIC (E. cloacae GN7471; GN7471, Concomitant (AZT:SM = 1:1), read-out: MIC concomitant) [µg/mL]	MIC (E. cloacae GN7471; [2]) [µg/mL]	MIC (E. cloacae GN7471; GN7471, Concomitant (BIPM:SM = 1:1), read-out: MIC concomitant) [µg/mL]	combination effect [1]
C[C@H]1[C@H](NC(=O)/C(=N\OC(C)(C)C(=O)O)c2csc(N)n2)C(=O)N1S(=O)(=O)O [AZT, aztreonam]	4	16	–	–
C[C@@H](O)[C@H]1C(=O)N2C(C(=O)[O-])=C(SC3Cn4cnc[n+]4C3)[C@H](C)[C@H]12 (some centres unmarked) [BIPM, biapenem]	–	0.063	0.063	the combination effect was recognized
